Results on three molecules are retold here after PMC7604503, “Cyclic peptides can engage a single binding pocket through highly divergent modes” (Proceedings of the National Academy of Sciences of the …, 2020).

SMILES strings stand for the structures. Where a SMILES comes first, the peptide text is derived from it. Bridges are numbered along the chain shown (N, C = ends).

Assay in all cases: BROMOscan competition binding assay (BromoMAX, Eurofins DiscoverX)
The target of experiment [1] is T1, ATAD2A (Homo sapiens, UniProt Q6PL18).
T1 construct: purchased Eurofins DiscoverX (BROMOscan, BromoMAX)
T1 sequence (Q6PL18 1-1390): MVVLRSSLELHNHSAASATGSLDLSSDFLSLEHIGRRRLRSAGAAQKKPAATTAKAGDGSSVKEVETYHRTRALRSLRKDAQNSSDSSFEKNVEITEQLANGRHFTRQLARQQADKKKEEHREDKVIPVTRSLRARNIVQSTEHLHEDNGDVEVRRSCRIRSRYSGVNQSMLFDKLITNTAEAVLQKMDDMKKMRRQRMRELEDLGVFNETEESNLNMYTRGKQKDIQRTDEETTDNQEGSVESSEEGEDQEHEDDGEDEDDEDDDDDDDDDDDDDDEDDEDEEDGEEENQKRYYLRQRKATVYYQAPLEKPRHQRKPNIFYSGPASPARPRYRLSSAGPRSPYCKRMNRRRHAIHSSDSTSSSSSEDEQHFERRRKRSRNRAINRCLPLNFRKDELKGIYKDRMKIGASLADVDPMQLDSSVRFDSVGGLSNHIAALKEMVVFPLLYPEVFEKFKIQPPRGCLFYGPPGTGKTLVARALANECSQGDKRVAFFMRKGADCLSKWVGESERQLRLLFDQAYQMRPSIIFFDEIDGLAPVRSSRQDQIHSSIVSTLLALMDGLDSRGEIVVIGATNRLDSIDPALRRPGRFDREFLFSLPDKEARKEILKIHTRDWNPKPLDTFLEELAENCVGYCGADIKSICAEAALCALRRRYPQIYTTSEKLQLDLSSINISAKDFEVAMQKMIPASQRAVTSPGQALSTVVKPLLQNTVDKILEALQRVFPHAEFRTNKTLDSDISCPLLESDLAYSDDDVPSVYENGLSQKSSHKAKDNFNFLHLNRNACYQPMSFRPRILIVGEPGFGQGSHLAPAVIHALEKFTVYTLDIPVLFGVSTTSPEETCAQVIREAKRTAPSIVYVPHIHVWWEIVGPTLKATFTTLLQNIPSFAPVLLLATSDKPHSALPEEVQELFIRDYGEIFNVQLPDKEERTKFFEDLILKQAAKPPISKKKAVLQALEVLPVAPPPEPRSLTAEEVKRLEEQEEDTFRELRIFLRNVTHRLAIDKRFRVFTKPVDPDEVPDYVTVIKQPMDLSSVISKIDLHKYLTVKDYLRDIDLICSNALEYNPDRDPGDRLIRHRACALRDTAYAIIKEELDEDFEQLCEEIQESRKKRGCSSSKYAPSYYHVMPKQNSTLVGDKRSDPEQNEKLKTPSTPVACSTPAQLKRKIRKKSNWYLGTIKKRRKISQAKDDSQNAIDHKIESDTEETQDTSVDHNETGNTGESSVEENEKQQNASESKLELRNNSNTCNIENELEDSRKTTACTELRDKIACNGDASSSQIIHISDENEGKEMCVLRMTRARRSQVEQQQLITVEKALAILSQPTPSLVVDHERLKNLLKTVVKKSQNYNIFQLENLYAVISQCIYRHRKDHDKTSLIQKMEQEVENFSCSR
The following applies: for Percent Control ATAD2A: compound concentration 1000 nM, lower percentage control = stronger affinity.

Experiment [2] concerns the target T2, BRD4(1) (Homo sapiens, UniProt O60885).
T2 construct: BRD4(1); purchased Eurofins DiscoverX (BROMOscan, BromoMAX)
Conditions: for Percent Control BRD4(1): compound concentration 1000 nM, lower percentage control = stronger affinity.

Experiment [3] concerns the target T3, TRIM24(PHD,Bromo.) (Homo sapiens, UniProt O15164).
T3 construct: purchased Eurofins DiscoverX (BROMOscan, BromoMAX)
T3 sequence (O15164 824-1006 limits assumed): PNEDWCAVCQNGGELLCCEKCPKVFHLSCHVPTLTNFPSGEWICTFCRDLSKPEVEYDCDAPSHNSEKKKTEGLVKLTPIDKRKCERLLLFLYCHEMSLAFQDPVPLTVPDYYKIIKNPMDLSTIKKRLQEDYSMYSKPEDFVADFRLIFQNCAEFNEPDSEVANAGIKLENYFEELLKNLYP
The following applies: for Percent Control TRIM24(PHD,Bromo.): compound concentration 1000 nM, lower percentage control = stronger affinity.

For experiment [4], the target named is T4, CREBBP (Homo sapiens, UniProt Q92793).
T4 construct: purchased Eurofins DiscoverX (BROMOscan, BromoMAX)
Conditions: for Percent Control CREBBP: compound concentration 1000 nM, lower percentage control = stronger affinity.

For experiment [5], the target named is T5, CECR2 (Homo sapiens, UniProt Q9BXF3).
T5 construct: purchased Eurofins DiscoverX (BROMOscan, BromoMAX)
The following applies: for Percent Control CECR2: compound concentration 1000 nM, lower percentage control = stronger affinity.

For experiment [6], the target named is T6, TAF1L(2) (Homo sapiens, UniProt Q8IZX4).
T6 construct: TAF1L(2); purchased Eurofins DiscoverX (BROMOscan, BromoMAX)
T6 sequence (Q8IZX4 1519-1654 limits assumed): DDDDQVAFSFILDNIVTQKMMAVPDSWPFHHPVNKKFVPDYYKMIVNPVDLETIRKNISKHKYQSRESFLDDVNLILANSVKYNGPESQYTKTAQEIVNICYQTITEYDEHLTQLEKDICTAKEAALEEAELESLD
The following applies: for Percent Control TAF1L(2): compound concentration 1000 nM, lower percentage control = stronger affinity.

Experiment [7] has as its target T7, FALZ (Homo sapiens, UniProt Q12830).
T7 construct: purchased Eurofins DiscoverX (BROMOscan, BromoMAX)
The following applies: for Percent Control FALZ: compound concentration 1000 nM, lower percentage control = stronger affinity.

Experiment [8] addresses T8, BRD4(2) (Homo sapiens, UniProt O60885).
T8 construct: BRD4(2); purchased Eurofins DiscoverX (BROMOscan, BromoMAX)
The following applies: for Percent Control BRD4(2): compound concentration 1000 nM, lower percentage control = stronger affinity.

In experiment [9] the target is T9, BRDT(1) (Homo sapiens, UniProt Q58F21).
T9 construct: BRDT(1); purchased Eurofins DiscoverX (BROMOscan, BromoMAX)
Conditions: for Percent Control BRDT(1): compound concentration 1000 nM, lower percentage control = stronger affinity.

Experiment [10] concerns the target T10, BRD3(2) (Homo sapiens, UniProt Q15059).
T10 construct: BRD3(2); purchased Eurofins DiscoverX (BROMOscan, BromoMAX)
Conditions: for Percent Control BRD3(2): compound concentration 1000 nM, lower percentage control = stronger affinity.

Experiment [11] has as its target T11, PCAF (Homo sapiens, UniProt Q92831).
T11 construct: purchased Eurofins DiscoverX (BROMOscan, BromoMAX)
The following applies: for Percent Control PCAF: compound concentration 1000 nM, lower percentage control = stronger affinity.

In experiment [12] the target is T12, SMARCA2 (Homo sapiens, UniProt P51531).
T12 construct: purchased Eurofins DiscoverX (BROMOscan, BromoMAX)
Conditions: for Percent Control SMARCA2: compound concentration 1000 nM, lower percentage control = stronger affinity.

Experiment [13] concerns the target T13, BRD2(2) (Homo sapiens, UniProt P25440).
T13 construct: BRD2(2); purchased Eurofins DiscoverX (BROMOscan, BromoMAX)
The following applies: for Percent Control BRD2(2): compound concentration 1000 nM, lower percentage control = stronger affinity.

`CC[C@H](C)[C@H](NC(=O)[C@H](CCCNC(=N)N)NC(=O)[C@H](CCCCNC(C)=O)NC(=O)[C@H](CCCNC(=N)N)NC(=O)[C@H](CC(C)C)NC(=O)[C@@H]1CSCC(=O)N[C@@H](Cc2c[nH]c3ccccc23)C(=O)N[C@@H](CCCCNC(C)=O)C(=O)NCC(=O)N[C@@H](Cc2ccc(O)cc2)C(=O)N[C@@H](CC(C)C)C(=O)N1)C(=O)N[C@@H](CCC(N)=O)C(=O)N[C@@H](CCCNC(=N)N)C(=O)N[C@H](C(=O)N[C@@H](Cc1ccc(O)cc1)C(=O)N[C@@H](CC(N)=O)C(N)=O)[C@@H](C)O` [4.2C] ({CH2CO}-WK(Ac)GYLCLRK(Ac)RIQRTYN-NH2; thioether N-6): the percent of control binding at 1 µM was determined as 85% in experiment [1]; 98% in experiment [3]; 99% in [5]; 100% in experiment [11]; 36% in [12]. The remaining binding at 1 µM in experiment [2] (read-out: Percent Control BRD4(1)) amounted to 96%; in experiment [4] (read-out: Percent Control CREBBP), 100%; in experiment [6] (read-out: Percent Control TAF1L(2)), 100%; in experiment [7] (read-out: Percent Control FALZ) it was 96%; in experiment [8] (read-out: Percent Control BRD4(2)) it was 24%; in experiment [9] (read-out: Percent Control BRDT(1)), 85%. Besides, the figures for the remaining binding at 1 µM in [10] (read-out: Percent Control BRD3(2)) and in [13] (read-out: Percent Control BRD2(2)) were 96% and 17%, respectively.
Consider `CC[C@H](C)[C@@H]1NC(=O)[C@H]([C@@H](C)O)NC(=O)[C@H](CCCCN)NC(=O)[C@H](Cc2c[nH]c3ccccc23)NC(=O)CSC[C@@H](C(N)=O)NC(=O)[C@H](CCC(N)=O)NC(=O)[C@H](CCCCNC(C)=O)NC(=O)[C@H]([C@@H](C)O)NC(=O)[C@H](CCCNC(=N)N)NC(=O)[C@H](Cc2c[nH]c3ccccc23)NC(=O)[C@H]([C@@H](C)O)NC(=O)[C@H](CCCCNC(C)=O)NC(=O)CNC(=O)[C@H](CCCCNC(C)=O)NC1=O` [3.1B] ({CH2CO}-WKTIK(Ac)GK(Ac)TWRTK(Ac)QC-NH2; thioether N-14), for which the “Percent Control ATAD2A” value in experiment [1] is given as 92%. For the same molecule, the “Percent Control BRD4(1)” value in [2] was determined as 0.2%. In experiment [3], the “Percent Control TRIM24(PHD,Bromo.)” value is recorded as 91%. For the same molecule, the “Percent Control CREBBP” value in experiment [4] was 100%. Further, the “Percent Control CECR2” value in [5] was determined as 100%. Further, the “Percent Control TAF1L(2)” value in experiment [6] is reported as 100%. Also, the “Percent Control FALZ” value in experiment [7] was determined as 73%. Also, the “Percent Control BRD4(2)” value in experiment [8] was 99%. For the same molecule, the “Percent Control BRDT(1)” value in experiment [9] is given as 0%. For the same molecule, in [10], the “Percent Control BRD3(2)” value stood at 100%. In addition, the “Percent Control PCAF” value in [11] worked out at 94%. In addition, the “Percent Control SMARCA2” value in experiment [12] is given as 34%. For the same molecule, the “Percent Control BRD2(2)” value in experiment [13] is given as 100%.
For the molecule `CC[C@H](C)[C@@H]1NC(=O)[C@H](Cc2c[nH]c3ccccc23)NC(=O)[C@H](Cc2c[nH]c3ccccc23)NC(=O)CSC[C@@H](C(N)=O)NC(=O)CNC(=O)[C@H](CCCCNC(C)=O)NC(=O)[C@H](CCCCN)NC(=O)[C@H](C(C)C)NC(=O)[C@H](CCCCNC(C)=O)NC(=O)[C@@H]2CCCN2C(=O)[C@H]([C@@H](C)CC)NC1=O` [3.1C] ({CH2CO}-WWIIPK(Ac)VKK(Ac)GC-NH2; thioether N-11), the “Percent Control ATAD2A” value in experiment [1] was 92%. Besides, the “Percent Control BRD4(1)” value in experiment [2] was found to be 0%. For the same molecule, the “Percent Control TRIM24(PHD,Bromo.)” value in [3] was 94%. In addition, the “Percent Control CREBBP” value in experiment [4] was found to be 100%. Also, the “Percent Control CECR2” value in [5] amounted to 99%. For the same molecule, the “Percent Control TAF1L(2)” value in [6] amounted to 100%. Further, the “Percent Control FALZ” value in experiment [7] is 93%. Further, the “Percent Control BRD4(2)” value in experiment [8] stood at 13%. In [9], the “Percent Control BRDT(1)” value stood at 0%. Besides, in experiment [10], the “Percent Control BRD3(2)” value stood at 13%. Further, the “Percent Control PCAF” value in experiment [11] is recorded as 96%. Also, the “Percent Control SMARCA2” value in [12] is listed as 35%. For the same molecule, the “Percent Control BRD2(2)” value in [13] is 0.35%.
